Assay [1] has as its target T1, Protein phosphatase 1 regulatory subunit 15B (Homo sapiens, UniProt Q5SWA1).
T1 sequence (Q5SWA1 whole entry): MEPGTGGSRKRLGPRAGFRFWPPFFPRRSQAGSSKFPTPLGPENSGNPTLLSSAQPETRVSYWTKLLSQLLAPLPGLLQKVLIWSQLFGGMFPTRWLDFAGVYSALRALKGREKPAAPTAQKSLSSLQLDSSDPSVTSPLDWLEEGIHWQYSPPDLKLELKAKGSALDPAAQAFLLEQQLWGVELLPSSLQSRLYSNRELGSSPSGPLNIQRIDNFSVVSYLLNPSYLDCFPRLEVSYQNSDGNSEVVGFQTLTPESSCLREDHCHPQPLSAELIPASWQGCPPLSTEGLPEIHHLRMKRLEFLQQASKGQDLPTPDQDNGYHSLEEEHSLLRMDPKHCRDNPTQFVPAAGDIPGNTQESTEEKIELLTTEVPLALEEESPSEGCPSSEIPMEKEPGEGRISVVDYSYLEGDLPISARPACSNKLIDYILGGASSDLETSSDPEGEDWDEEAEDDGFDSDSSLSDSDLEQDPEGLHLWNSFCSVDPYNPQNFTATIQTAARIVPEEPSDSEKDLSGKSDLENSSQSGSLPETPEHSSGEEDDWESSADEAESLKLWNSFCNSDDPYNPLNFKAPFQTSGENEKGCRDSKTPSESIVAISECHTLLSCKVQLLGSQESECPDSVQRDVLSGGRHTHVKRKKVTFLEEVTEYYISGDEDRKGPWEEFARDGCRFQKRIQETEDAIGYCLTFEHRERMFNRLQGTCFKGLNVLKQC
Nature of the assay: Inhibition of amino-terminal MBP-tagged/carboxy-terminal His6-tagged human PPP1R15B (325 to 626 residues).

Assay [2] concerns the target Protein phosphatase 1 regulatory subunit 15A (Homo sapiens, UniProt O75807). Nature of the assay: Inhibition of amino-terminal MBP-tagged/carboxy-terminal His6-tagged human PPP1R15A (325 to 626 residues).
Assay [3] concerns the target Maternal embryonic leucine zipper kinase (Homo sapiens, UniProt Q14680). Kind of assay: Inhibition of MELK (unknown origin).
Assay [4] has as its target T2, Protein deacetylase HDAC6 (Homo sapiens, UniProt Q9UBN7).
T2 sequence (Q9UBN7 whole entry): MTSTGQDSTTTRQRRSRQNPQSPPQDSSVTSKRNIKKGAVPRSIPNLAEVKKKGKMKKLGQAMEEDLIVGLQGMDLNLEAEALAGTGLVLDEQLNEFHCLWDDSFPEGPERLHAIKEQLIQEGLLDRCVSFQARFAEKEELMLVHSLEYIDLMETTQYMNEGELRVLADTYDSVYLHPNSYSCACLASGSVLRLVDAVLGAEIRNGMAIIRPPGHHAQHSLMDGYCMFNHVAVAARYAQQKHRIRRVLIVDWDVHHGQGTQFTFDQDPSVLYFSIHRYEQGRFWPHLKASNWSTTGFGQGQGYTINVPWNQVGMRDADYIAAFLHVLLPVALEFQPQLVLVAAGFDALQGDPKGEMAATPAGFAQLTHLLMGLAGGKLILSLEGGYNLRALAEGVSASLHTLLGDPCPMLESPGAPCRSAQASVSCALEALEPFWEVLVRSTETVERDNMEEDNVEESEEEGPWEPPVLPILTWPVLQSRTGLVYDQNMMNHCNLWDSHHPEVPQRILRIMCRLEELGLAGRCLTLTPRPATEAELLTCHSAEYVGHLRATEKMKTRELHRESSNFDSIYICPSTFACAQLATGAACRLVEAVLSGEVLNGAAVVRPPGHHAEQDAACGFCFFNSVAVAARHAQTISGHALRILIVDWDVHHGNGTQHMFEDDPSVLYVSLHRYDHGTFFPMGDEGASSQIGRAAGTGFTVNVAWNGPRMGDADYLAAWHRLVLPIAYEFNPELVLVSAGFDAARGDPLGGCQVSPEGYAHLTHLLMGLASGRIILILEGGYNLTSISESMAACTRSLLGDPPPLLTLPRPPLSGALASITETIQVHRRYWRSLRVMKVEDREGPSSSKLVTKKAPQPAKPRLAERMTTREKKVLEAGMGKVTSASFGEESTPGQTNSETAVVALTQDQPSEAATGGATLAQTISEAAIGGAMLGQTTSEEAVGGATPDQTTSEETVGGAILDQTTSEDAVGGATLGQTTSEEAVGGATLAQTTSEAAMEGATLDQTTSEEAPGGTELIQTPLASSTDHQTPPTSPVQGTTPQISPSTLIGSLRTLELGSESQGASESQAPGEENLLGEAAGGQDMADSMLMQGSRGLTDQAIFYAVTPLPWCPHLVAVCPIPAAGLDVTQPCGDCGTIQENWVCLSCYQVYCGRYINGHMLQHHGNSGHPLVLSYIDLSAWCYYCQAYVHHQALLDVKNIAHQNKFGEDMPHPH
Nature of the assay: Inhibition of HDAC6 (unknown origin).

Another assay is filed under the species Homo sapiens. Nature of the assay: Selectivity ratio, ratio of IC50 for HDAC6 (unknown origin) to Class 1 HDAC (unknown origin).

The term IC50 denotes the concentration that gives 50% inhibition. A low value points to inhibition by little substance.

Sequence of Maternal embryonic leucine zipper kinase (Q14680 whole entry): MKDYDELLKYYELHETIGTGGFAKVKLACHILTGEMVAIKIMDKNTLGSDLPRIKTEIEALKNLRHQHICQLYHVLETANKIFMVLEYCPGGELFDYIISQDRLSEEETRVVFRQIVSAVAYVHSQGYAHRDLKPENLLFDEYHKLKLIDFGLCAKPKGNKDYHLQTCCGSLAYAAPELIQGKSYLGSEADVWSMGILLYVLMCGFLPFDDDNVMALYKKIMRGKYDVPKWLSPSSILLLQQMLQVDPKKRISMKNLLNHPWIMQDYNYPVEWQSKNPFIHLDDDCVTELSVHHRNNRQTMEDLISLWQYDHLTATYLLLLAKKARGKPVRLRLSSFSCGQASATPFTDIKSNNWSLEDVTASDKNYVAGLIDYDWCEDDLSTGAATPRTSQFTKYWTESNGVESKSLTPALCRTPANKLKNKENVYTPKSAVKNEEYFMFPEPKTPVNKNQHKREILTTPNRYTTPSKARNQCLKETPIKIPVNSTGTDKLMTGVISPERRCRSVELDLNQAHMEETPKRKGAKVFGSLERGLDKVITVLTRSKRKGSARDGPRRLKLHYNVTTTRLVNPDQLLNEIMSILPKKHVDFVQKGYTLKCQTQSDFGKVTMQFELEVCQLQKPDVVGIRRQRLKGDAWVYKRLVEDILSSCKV
Sequence of Protein phosphatase 1 regulatory subunit 15A (O75807 whole entry, the tested form may be a part): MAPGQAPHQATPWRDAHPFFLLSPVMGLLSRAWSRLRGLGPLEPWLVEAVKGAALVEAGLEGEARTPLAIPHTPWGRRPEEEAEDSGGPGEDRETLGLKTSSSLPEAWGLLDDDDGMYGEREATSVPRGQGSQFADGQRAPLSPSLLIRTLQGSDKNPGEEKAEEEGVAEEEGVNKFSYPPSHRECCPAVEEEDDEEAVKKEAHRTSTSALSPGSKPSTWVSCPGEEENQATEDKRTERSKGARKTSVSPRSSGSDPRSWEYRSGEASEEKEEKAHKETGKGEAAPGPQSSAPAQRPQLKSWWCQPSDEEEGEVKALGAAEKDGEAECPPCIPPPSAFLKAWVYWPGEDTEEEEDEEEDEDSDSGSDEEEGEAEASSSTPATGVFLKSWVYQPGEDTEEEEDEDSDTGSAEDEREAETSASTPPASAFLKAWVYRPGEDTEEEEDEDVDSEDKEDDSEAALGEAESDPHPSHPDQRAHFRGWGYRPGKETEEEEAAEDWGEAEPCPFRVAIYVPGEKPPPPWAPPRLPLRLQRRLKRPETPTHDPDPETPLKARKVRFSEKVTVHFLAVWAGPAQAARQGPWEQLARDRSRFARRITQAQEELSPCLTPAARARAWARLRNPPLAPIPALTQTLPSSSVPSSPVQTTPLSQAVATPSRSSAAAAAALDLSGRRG

In the case of `N=C(N)N/N=C/c1cccc(Cl)c1Cl`, the results for the IC50 in assay [1], in assay [2] and in assay [3] were 33 nM, 977 nM and 200 to 500 nM, respectively.

In the case of `COc1ccc(/C=C2\SC(=S)NC2=O)cc1C#C[Si](C)(C)C`, in assay [3], the IC50 was 200 to 500 nM.

With `CNC(=O)COc1cc2cc(Nc3nc(N4C[C@H](C)C[C@H](C)C4)ncc3Cl)ccc2n(C)c1=O`, the IC50 in assay [3] was 200 to 500 nM.

In the case of `O=C(NO)c1ccc(Cn2c(=O)n(CCc3ccccc3)c(=O)c3ccccc32)cc1`, the IC50 in assay [3] is 200 to 500 nM; in assay [4], 4.7 nM. The Ratio IC50 in the assay filed under Homo sapiens amounted to 200.

For the origin of these results see ChEMBL document CHEMBL4627375, “Monovalent protein-degraders - Insights and future perspectives” (Bioorg Med Chem Lett, 2020).
